Measured values reported in ChEMBL document CHEMBL1151189, “Antimicrobial chlorinated bibenzyls from the liverwort Riccardia marginata” (2004).
Activity calls are given as the source filed them. The calls are words filed in the database; no cut-off is given here.

Legend:
Candida albicans = assay: Antimicrobial activity against Candida albicans at 30 ug/disk; format: functional; settings: read-out: IZ
Amorphotheca resinae = assay: Antimicrobial activity against Cladosporium resinae at 30 ug/disk; format: functional; settings: read-out: IZ
Bacillus subtilis [1] = assay: Antimicrobial activity against Bacillus subtilis at 30 ug/disk; format: functional; settings: read-out: IZ
[2] = system: Trichophyton mentagrophytes; assay: Antimicrobial activity against Trichophyton mentagrophytes at 30 ug/disk; format: functional; settings: read-out: IZ
Escherichia coli = assay: Antimicrobial activity against Escherichia coli; format: functional, organism-based
Bacillus subtilis [3] = assay: Antimicrobial activity against Bacillus subtilis at 30 ug/5 mm disk; format: functional

Oc1c(Cl)ccc(CCc2ccccc2)c1Cl
zone of inhibition at 30 µg/disc (Candida albicans): 2 mm
zone of inhibition at 30 µg/disc (Amorphotheca resinae): 2 mm
zone of inhibition at 30 µg/disc (Bacillus subtilis [1]): 2 mm
zone of inhibition at 30 µg/disc [2]: 12 mm
Activity (Escherichia coli): inactive

Oc1cccc(CCc2ccccc2)c1Cl
zone of inhibition at 30 µg/disc (Candida albicans): 2 mm
zone of inhibition at 30 µg/disc (Amorphotheca resinae): 0 mm
zone of inhibition at 30 µg/disc (Bacillus subtilis [1]): 2 mm
zone of inhibition at 30 µg/disc [2]: 3 mm
Activity (Escherichia coli): inactive

Oc1c(Cl)cc(Cl)c(CCc2ccccc2)c1Cl
zone of inhibition at 30 µg/disc (Candida albicans): 2 mm
zone of inhibition at 30 µg/disc (Amorphotheca resinae): 1 mm
inhibition zone (IZ) (Bacillus subtilis [3]): 2 mm
zone of inhibition at 30 µg/disc [2]: 7 mm
Activity (Escherichia coli): inactive
